Results: US20230053328A9, “COMBINATION THERAPIES USING CDK INHIBITORS” (Pfizer Inc., priority 2019, published 2023)

System: MC38 syngeneic mouse tumor model
Assay: MC38 syngeneic mouse tumor model, tumor growth inhibition and survival (Example 1)
Assay type: in vivo
Protocol: MC38 cells were obtained from American Type Culture Collection (ATCC) and cultured in Roswell Park Memorial Institute (RPMI1640) supplemented with 10% fetal bovine serum (FBS). All cells were maintained in a humidified incubator at 37° C. with 5% carbon dioxide (CO2). Female C57/BL6 mice were obtained from Jackson Laboratories at 8 weeks of age. To generate the syngeneic model, 0.5 million MC38 tumor cells were subcutaneously implanted into the right flank of female C57/BL6 mice. Tumor bearing mice were randomized into six treatment groups based on average tumor sizes of approximately 70 mm^3 per group, on Day 9 post tumor cell implantation. […]
Tumor volumes were measured three times a week. Tumor volume was calculated based on two-dimensional caliper measurement with cubic millimeter volume calculated using the formula (length×width2)×0.5. […] Statistical significance determined using the Holm-Sidak method, with alpha=0.05.

With `C[C@@]1(O)CCC[C@H]1n1c(=O)c(C(F)F)cc2cnc(NC3CCN(S(C)(=O)=O)CC3)nc21` [PF-06873600, 6-(difluoromethyl)-8-((1R,2R)-2-hydroxy-2-methylcyclopentyl)-2-(1-(methylsulfonyl)piperidin-4-ylamino)pyrido[2,3-d]pyrimidin-7(8H)-one] the “synergy with OX40/4-1BB immune checkpoint modulators (in words)” value (MC38 syngeneic mouse tumor model, example heading) was “Synergizes” and the “tumor growth inhibition (in words)” value (MC38 tumors in C57/BL6 mice, Day 27 post-treatment initiation) was “did not significantly inhibit tumor growth”.
